# Experiments:
# Type in all cases: biochemical
# cSRC(h) = target: T1, cSRC(h) (Homo sapiens, UniProt P12931); assay: KinaseProfiler assay (Upstate), cSRC
# T1 construct: purchased Upstate Biotechnology (Dundee, UK), KinaseProfiler service
# Description: (§1) Further enzyme assays were conducted at Upstate Biotechnology (Dundee, UK) in the KinaseProfiler™ Assay system.
# (§2) The general protocol is as follows. All kinases are pre-diluted to a 10× working concentration prior to addition into the assay. The composition of the dilution buffer for the kinases is 20 mM MOPS pH 7.0, 1 mM EDTA, 0.1% β-mercaptoethanol, 0.01% Brij-35, 5% glycerol, 1 mg/ml BSA. All substrates are dissolved and diluted to working stocks in de-ionised water.
# Hck(h) = target: T2, Hck(h) (Homo sapiens, UniProt P08631); assay: KinaseProfiler assay (Upstate), Hck
# T2 construct: purchased Upstate Biotechnology (Dundee, UK), KinaseProfiler service
# T2 sequence (P08631 whole entry): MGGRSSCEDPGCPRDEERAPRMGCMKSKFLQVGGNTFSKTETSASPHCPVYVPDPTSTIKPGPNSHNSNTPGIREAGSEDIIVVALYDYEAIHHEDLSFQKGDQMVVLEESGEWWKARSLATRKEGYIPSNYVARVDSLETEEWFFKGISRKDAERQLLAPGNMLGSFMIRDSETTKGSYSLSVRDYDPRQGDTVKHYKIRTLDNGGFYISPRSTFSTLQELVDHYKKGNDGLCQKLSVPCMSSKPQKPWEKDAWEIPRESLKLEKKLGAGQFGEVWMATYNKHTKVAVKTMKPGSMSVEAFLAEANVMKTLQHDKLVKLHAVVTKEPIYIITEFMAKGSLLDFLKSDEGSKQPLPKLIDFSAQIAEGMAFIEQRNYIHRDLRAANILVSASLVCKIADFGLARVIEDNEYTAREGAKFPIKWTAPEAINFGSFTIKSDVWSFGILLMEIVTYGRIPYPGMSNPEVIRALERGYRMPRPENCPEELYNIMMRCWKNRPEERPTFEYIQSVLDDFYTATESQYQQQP
# Description: as §1, §2
# In a final reaction volume of 25 μl, Hck (h) (5-10 mU) is incubated with 8 mM MOPS pH 7.0, 0.2 mM EDTA, 250 μM […] (Cdc2 peptide), 10 mM MgAcetate and [γ-33P-ATP] (specific activity approx. 500 cpm/pmol, concentration as required). The reaction is initiated by the addition of the MgATP mix. After incubation for 40 minutes at room temperature, the reaction is stopped by the addition of 5 μl of a 3% phosphoric acid solution. 10 μl of the reaction is then spotted onto a P30 filtermat and washed three times for 5 minutes in 75 mM phosphoric acid and once in methanol prior to drying and scintillation counting.
# KDR protein kinase = target: T3, KDR protein kinase (Homo sapiens, UniProt P35968); assay: Alphascreen protein tyrosine kinase assay, KDR
# T3 construct: purchased Millipore 14-630M
# T3 sequence (P35968 20-1356): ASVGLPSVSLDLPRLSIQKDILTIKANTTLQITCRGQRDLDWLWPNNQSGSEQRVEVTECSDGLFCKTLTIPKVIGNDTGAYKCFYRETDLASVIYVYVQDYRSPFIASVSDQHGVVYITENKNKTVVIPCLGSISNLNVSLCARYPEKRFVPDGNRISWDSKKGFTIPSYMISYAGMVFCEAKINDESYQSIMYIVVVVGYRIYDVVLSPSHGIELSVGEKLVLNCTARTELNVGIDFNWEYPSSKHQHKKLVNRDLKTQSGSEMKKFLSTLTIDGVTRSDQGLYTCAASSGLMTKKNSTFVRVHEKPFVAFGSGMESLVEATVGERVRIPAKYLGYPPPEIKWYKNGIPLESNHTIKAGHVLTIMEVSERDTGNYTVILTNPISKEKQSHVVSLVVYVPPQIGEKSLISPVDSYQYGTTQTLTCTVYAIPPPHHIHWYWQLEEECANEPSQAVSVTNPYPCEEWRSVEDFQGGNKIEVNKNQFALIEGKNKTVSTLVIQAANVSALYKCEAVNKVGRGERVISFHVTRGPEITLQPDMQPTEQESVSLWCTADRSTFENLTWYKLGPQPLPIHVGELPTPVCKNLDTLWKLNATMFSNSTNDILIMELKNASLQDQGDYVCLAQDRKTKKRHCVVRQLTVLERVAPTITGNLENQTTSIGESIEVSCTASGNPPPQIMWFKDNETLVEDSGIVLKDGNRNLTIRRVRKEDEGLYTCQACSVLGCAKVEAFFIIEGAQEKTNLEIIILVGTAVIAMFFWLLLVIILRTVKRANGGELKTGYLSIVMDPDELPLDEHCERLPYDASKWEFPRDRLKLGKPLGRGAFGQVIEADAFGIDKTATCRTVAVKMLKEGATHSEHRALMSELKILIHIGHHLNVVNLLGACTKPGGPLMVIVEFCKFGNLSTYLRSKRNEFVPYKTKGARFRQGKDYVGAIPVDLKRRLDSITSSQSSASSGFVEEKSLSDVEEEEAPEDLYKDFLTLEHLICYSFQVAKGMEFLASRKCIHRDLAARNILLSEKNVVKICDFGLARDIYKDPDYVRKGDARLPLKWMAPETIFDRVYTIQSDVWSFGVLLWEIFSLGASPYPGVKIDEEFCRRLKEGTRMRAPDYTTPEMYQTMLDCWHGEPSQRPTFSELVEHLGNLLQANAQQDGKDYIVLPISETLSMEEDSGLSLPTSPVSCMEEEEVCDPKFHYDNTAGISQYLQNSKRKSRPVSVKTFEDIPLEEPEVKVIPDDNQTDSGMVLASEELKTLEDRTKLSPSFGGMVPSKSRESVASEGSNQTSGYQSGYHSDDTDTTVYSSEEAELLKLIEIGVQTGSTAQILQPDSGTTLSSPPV
# Description: For screening purposes, compounds were diluted in 96 well plates at a concentration of 20 μM. Plates were warmed at 37° C. for 30 minutes before assay.
# FLT-3 and PDGFR β tyrosine kinase enzymes were purchased from Upstate Cell Signalling Solutions, CA, USA (flt-3 catalog #: 14-500 and PDGFR β catalog #: 14-463). KDR protein kinase enzyme was purchased from Millipore (catalogue #14-630M).
# Kinase assays were performed in 384 well Optiplates (Packard) using an Alphascreen Protein Tyrosine Kinase kit. […] The biotinylated peptides Biotin-[…]-NH2 for c-KIT and PDGFRβ and Biotin-[…]-NH2 for CSF1-R and FLT-3 (final concentration 0.1-3 μM) were used as substrates. Alphascreen phosphotyrosine acceptor beads followed by streptavidin donor beads were added under subdued light. The Alphascreen plates were read on a Packard Fusion Alpha. Inhibitors were added to the assays thirty minutes prior to the addition of ATP. Inhibitors were added in aqueous DMSO, with DMSO concentrations never exceeding 1%.
# EphA3(h) = target: T4, EphA3(h) (Homo sapiens, UniProt P29320); assay: KinaseProfiler assay (Upstate), EphA3
# T4 construct: purchased Upstate Biotechnology (Dundee, UK), KinaseProfiler service
# T4 sequence (P29320 21-983): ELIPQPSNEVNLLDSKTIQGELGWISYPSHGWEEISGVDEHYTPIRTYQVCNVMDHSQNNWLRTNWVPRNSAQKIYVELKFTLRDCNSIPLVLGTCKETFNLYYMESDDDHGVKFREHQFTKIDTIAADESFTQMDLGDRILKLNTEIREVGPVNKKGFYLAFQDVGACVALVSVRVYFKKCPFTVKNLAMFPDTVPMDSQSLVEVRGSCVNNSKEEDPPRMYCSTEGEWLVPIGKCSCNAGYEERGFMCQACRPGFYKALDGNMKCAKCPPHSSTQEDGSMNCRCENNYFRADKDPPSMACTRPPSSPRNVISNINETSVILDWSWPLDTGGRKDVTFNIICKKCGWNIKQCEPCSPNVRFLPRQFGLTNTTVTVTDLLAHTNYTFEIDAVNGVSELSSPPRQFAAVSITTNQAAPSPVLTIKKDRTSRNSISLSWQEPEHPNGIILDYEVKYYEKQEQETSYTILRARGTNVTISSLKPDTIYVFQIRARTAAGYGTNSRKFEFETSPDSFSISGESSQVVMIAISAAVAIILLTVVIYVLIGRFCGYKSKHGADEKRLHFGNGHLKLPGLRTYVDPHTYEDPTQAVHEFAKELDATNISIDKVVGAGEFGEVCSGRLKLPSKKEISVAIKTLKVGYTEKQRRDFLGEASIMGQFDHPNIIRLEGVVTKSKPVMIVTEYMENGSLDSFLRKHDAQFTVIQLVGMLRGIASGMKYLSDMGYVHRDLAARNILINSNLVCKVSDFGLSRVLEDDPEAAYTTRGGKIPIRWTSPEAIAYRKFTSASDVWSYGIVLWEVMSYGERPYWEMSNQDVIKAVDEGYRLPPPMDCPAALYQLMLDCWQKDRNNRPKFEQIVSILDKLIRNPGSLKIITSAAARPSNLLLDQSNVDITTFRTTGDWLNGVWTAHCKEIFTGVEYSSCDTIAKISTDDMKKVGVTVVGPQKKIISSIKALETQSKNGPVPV
# Description: as §1, §2
# In a final reaction volume of 25 EphA3 (h) (5-10 mU) is incubated with 8 mM MOPS pH 7.0, 0.2 mM EDTA, 0.1 mg/ml poly(Glu, Tyr) 4:1, 10 mM MgAcetate and [γ-33P-ATP] (specific activity approx. 500 cpm/pmol, concentration as required). The reaction is initiated by the addition of the MgATP mix. After incubation for 40 minutes at room temperature, the reaction is stopped by the addition of 5 μl of a 3% phosphoric acid solution. 10 μl of the reaction is then spotted onto a Filtermat A and washed three times for 5 minutes in 75 mM phosphoric acid and once in methanol prior to drying and scintillation counting.
# T1 sequence (P12931 whole entry): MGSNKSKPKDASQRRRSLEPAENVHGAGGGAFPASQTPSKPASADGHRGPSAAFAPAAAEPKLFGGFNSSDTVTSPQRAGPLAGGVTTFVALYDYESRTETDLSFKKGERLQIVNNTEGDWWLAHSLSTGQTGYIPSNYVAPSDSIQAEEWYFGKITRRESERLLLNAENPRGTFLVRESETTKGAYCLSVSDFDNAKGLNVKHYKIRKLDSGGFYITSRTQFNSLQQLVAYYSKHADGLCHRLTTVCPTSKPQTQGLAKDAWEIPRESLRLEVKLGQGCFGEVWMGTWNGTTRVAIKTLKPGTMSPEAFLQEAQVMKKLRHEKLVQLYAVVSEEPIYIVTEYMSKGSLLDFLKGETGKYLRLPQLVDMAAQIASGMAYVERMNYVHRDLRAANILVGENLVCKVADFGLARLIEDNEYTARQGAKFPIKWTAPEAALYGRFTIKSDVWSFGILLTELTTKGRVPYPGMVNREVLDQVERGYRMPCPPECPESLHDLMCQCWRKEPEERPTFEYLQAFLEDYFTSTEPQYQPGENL
SMILES,inhibition at 0.1 µM (cSRC(h)) [%],inhibition at 1 µM (cSRC(h)) [%],inhibition at 0.1 µM (Hck(h)) [%],inhibition at 1 µM (Hck(h)) [%],IC50 (KDR protein kinase) [nM],inhibition at 0.1 µM (EphA3(h)) [%],inhibition at 1 µM (EphA3(h)) [%]
"Cc1cccc(C(=O)Nc2cccc([C@H](C)Nc3cncc(-n4ccnc4)n3)c2)c1 [Compound 143, (S)—N-(3-(1-(6-(1H-imidazol-1-yl)pyrazin-2-ylamino)ethyl)phenyl)-3-methylbenzamide]",14,65,55,82,< 100,0,58
Cc1cccc(C(=O)Nc2cccc([C@H](C)Nc3cncc(-c4cccc(N5CCOCC5)c4)n3)c2)c1 [Compound 147],45,87,90,100,< 100,44,91
C[C@H](Nc1cncc(-c2ccc(N3CCN(C)CC3)cc2)n1)c1cccc(NC(=O)c2cccc(C(F)(F)F)c2)c1 [Compound 148],86,96,96,99,< 100,79,99
C[C@H](Nc1cncc(-c2cccc(N3CCOCC3)c2)n1)c1cccc(NC(=O)c2cccc(C(F)(F)F)c2)c1 [Compound 149],69,96,94,100,< 100,46,94
Cc1cccc(C(=O)Nc2ccc(C)c([C@H](C)Nc3cncc(Cl)n3)c2)c1 [Compound 168],53,95,96,101,,69,98

# Now from value to compound:
inhibition at 0.1 µM (cSRC(h)) [%],inhibition at 1 µM (cSRC(h)) [%],inhibition at 0.1 µM (Hck(h)) [%],inhibition at 1 µM (Hck(h)) [%],IC50 (KDR protein kinase) [nM],inhibition at 0.1 µM (EphA3(h)) [%],inhibition at 1 µM (EphA3(h)) [%],SMILES
23,74,64,95,< 100,17,70,Cc1cccc(C(=O)Nc2cccc([C@H](C)Nc3cncc(-c4ccc(S(N)(=O)=O)cc4)n3)c2)c1 [Compound 77]
24,80,74,102,< 100,24,92,"C[C@H](Nc1cncc(Cl)n1)c1cccc(NC(=O)c2cccc(C(F)(F)F)c2)c1 [Compound 114, (S)—N-(3-(1-(6-chloropyrazin-2-ylamino)ethyl)phenyl)-3-(trifluoromethyl)benzamide]"
38,85,84,99,< 100,18,76,Cc1cccc(C(=O)Nc2cccc([C@H](C)Nc3cncc(-c4ccc(N5CCN(C)CC5)cc4)n3)c2)c1 [Compound 129]
1,14,23,84,< 100,-4,34,"Cc1cccc(C(=O)Nc2cccc([C@H](C)Nc3cncc(C(N)=O)n3)c2)c1 [Compound 133, (S)-6-(1-(3-(3-methylbenzamido)phenyl)ethylamino)pyrazine-2-carboxamide]"

# Reference: patent US9029386B2, “Pyridine derivatives useful as kinase inhibitors” (YM Biosciences Australia Pty Ltd, priority 2006, dated 2015)
